Source: patent US20240218022A1, “ANTI-VISTA MACROCYCLIC PEPTIDES AND COMPOSITIONS” (BRISTOL-MYERS SQUIBB COMPANY, priority 2022, published 2024)
Starred links: 1 amine or outer side, 2 acyl side, 3 side chain; linkers in the order of their positions; H or OH if unused. Positions of bridges follow the written chain, without caps; N, C: chain ends. Non-standard residues stand in square brackets, D forms with d. Residues, ends and D or L forms follow the SMILES beside them. ξ: configuration not given here. Morpholine(3S-CO) = O=C(O)[C@@H]1COCCN1; Phe(3-Me) = Cc1cccc(C[C@H](N)C(=O)O)c1; 2Nal = N[C@@H](Cc1ccc2ccccc2c1)C(=O)O; βAsp = O=C(O)[C@H](CC(=O)[*:2])N[*:1]; Pro(4ξ-F) = O=C(O)[C@@H]1CC(F)CN1; Ahp(2) = CCCCC[C@H](N)C(=O)O; NMeNle = CCCC[C@H](NC)C(=O)O; Tle = CC(C)(C)[C@H](N)C(=O)O; NHexGly = CCCCCCNCC(=O)O; Nle = CCCC[C@H](N)C(=O)O; Aun = NCCCCCCCCCCC(=O)O; AEEA = NCCOCCOCC(=O)O

Target: T1, mouse VISTA (mVISTA) (Mus musculus, UniProt Q9D659)
T1 construct: expressed in transfected cells; host or cells: Human embryonic kidney 293T cells
T1 sequence (Q9D659 33-308): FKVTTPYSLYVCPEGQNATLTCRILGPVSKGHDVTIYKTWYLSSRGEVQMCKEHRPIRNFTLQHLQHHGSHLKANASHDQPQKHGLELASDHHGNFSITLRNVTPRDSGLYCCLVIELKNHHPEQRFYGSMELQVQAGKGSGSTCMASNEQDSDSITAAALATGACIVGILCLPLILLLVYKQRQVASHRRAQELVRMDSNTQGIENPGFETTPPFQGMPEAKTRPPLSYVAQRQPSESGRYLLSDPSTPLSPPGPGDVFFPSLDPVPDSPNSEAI
Experiment: Cell-Based Binding High-Content Assay For mVISTA (HC CBA mVISTA)
Conditions: read-out: HC CBA mVISTA IC50
Method in brief: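 This high-content binding assay uses HEK293T cells expressing murine VISTA, measuring displacement of 2 nM biotinylated peptide by fluorescent streptavidin imaging. IC50 values come from four-parameter logistic fitting.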

Row | Structure (SMILES) | IC50
1 | CCCCCCN1CC(=O)N[C@@H](Cc2ccc(O)cc2)C(=O)N[C@@H](CCCC)C(=O)N[C@@H](CC(N)=O)C(=O)N[C@@H](CCCNC(=N)N)C(=O)N(C)[C@@H](CCCC)C(=O)N[C@@H](CCCCC)C(=O)N2CCC[C@H]2C(=O)N[C@@H](C(C)(C)C)C(=O)N[C@@H](CO)C(=O)N[C@H](C(=O)N[C@@H](CC(=O)NCCOCCOCC(=O)NCCCCCCCCCCC(=O)O)C(=O)O)CSCC(=O)N[C@@H](Cc2ccccc2)C(=O)N[C@@H](Cc2c[nH]c3ccccc23)C(=O)N[C@@H](CC(=O)O)C1=O [Example 2191] ({CH2CO}-FWD[NHexGly]Y[Nle]NR[NMeNle][Ahp(2)]P[Tle]SC[βAsp][AEEA][Aun]-OH; thioether N-14) | 19.7 nM
2 | CCCCCCN1CC(=O)N[C@@H](Cc2ccc(O)cc2)C(=O)N[C@@H](CCCC)C(=O)N[C@@H](CC(N)=O)C(=O)N[C@@H](CCCNC(=N)N)C(=O)N(C)[C@@H](CCCC)C(=O)N[C@@H](CCCCC)C(=O)N2CC(F)C[C@H]2C(=O)N[C@@H](C(C)(C)C)C(=O)N[C@@H](CO)C(=O)N[C@H](C(=O)N[C@@H](CC(=O)NCCOCCOCC(=O)NCCCCCCCCCCC(=O)O)C(=O)O)CSCC(=O)N[C@@H](Cc2ccccc2)C(=O)N[C@@H](Cc2c[nH]c3ccccc23)C(=O)N[C@@H](CC(=O)O)C1=O (stereo partly shown) [Example 2194] ({CH2CO}-FWD[NHexGly]Y[Nle]NR[NMeNle][Ahp(2)][Pro(4ξ-F)][Tle]SC[βAsp][AEEA][Aun]-OH; thioether N-14) | 38.6 nM
3 | CCCCCCN1CC(=O)N[C@@H](Cc2ccc(O)cc2)C(=O)N[C@@H](CCCC)C(=O)N[C@@H](CC(N)=O)C(=O)N[C@@H](CCCNC(=N)N)C(=O)N(C)[C@@H](CCCC)C(=O)N[C@@H](CCCCC)C(=O)N2CCC[C@H]2C(=O)N[C@@H](C(C)(C)C)C(=O)N[C@@H](CO)C(=O)N[C@H](C(=O)N[C@@H](CC(=O)NCCOCCOCC(=O)NCCCCCCCCCCC(=O)O)C(=O)O)CSCC(=O)N[C@@H](Cc2ccc3ccccc3c2)C(=O)N[C@@H](Cc2ccc(O)cc2)C(=O)N[C@@H](CC(=O)O)C1=O [Example 2195] ({CH2CO}-[2Nal]YD[NHexGly]Y[Nle]NR[NMeNle][Ahp(2)]P[Tle]SC[βAsp][AEEA][Aun]-OH; thioether N-14) | 30.3 nM
4 | CCCCCCN1CC(=O)N[C@@H](Cc2ccc(O)cc2)C(=O)N[C@@H](CCCC)C(=O)N[C@@H](CC(N)=O)C(=O)N[C@@H](CCCNC(=N)N)C(=O)N(C)[C@@H](CCCC)C(=O)N[C@@H](CCCCC)C(=O)N2CC(F)C[C@H]2C(=O)N[C@@H](C(C)C)C(=O)N[C@@H](CO)C(=O)N[C@H](C(=O)N[C@@H](CC(=O)NCCOCCOCC(=O)NCCCCCCCCCCC(=O)O)C(=O)O)CSCC(=O)N[C@@H](Cc2ccccc2)C(=O)N[C@@H](Cc2c[nH]c3ccccc23)C(=O)N[C@@H](CC(=O)O)C1=O (stereo partly shown) [Example 2196] ({CH2CO}-FWD[NHexGly]Y[Nle]NR[NMeNle][Ahp(2)][Pro(4ξ-F)]VSC[βAsp][AEEA][Aun]-OH; thioether N-14) | 28.4 nM
5 | CCCCCCN1CC(=O)N[C@@H](Cc2ccc(O)cc2)C(=O)N[C@@H](CCCC)C(=O)N[C@@H](CC(N)=O)C(=O)N[C@@H](CCCNC(=N)N)C(=O)N(C)[C@@H](CCCC)C(=O)N[C@@H](CCCCC)C(=O)N2CCC[C@H]2C(=O)N[C@@H](C(C)(C)C)C(=O)N[C@@H](CO)C(=O)N[C@H](C(=O)N[C@@H](CC(=O)NCCOCCOCC(=O)NCCCCCCCCCCC(=O)O)C(=O)O)CSCC(=O)N[C@@H](Cc2cccc(C)c2)C(=O)N[C@@H](Cc2c[nH]c3ccccc23)C(=O)N[C@@H](CC(=O)O)C1=O [Example 2197] ({CH2CO}-[Phe(3-Me)]WD[NHexGly]Y[Nle]NR[NMeNle][Ahp(2)]P[Tle]SC[βAsp][AEEA][Aun]-OH; thioether N-14) | 32.6 nM
6 | CCCCCCN1CC(=O)N[C@@H](Cc2ccc(O)cc2)C(=O)N[C@@H](CC(C)C)C(=O)N[C@@H](CC(N)=O)C(=O)N[C@@H](CCCNC(=N)N)C(=O)N[C@@H](CC(C)C)C(=O)N[C@@H](CCCCC)C(=O)N2CCC[C@H]2C(=O)N[C@@H](C(C)C)C(=O)N[C@@H](C(C)C)C(=O)N[C@H](C(=O)NCCOCCOCC(=O)N[C@@H](CC(=O)NCCOCCOCC(=O)NCCCCCCCCCCC(=O)O)C(=O)O)CSCC(=O)N[C@@H](Cc2ccccc2)C(=O)N[C@@H](Cc2ccc(O)cc2)C(=O)N[C@@H](CC(=O)O)C1=O [Example 2201] ({CH2CO}-FYD[NHexGly]YLNRL[Ahp(2)]PVVC[AEEA][βAsp][AEEA][Aun]-OH; thioether N-14) | 20.9 nM
7 | CCCCCCN1CC(=O)N[C@@H](Cc2ccc(O)cc2)C(=O)N[C@@H](CC(C)C)C(=O)N[C@@H](CC(=O)O)C(=O)N[C@@H](CCCNC(=N)N)C(=O)N(C)[C@@H](CCCC)C(=O)N[C@@H](CCCCC)C(=O)N2CCC[C@H]2C(=O)N[C@@H](C(C)(C)C)C(=O)N[C@@H](CC(N)=O)C(=O)N[C@H](C(=O)NCCOCCOCC(=O)N[C@@H](CC(=O)NCCOCCOCC(=O)NCCCCCCCCCCC(=O)O)C(=O)O)CSCC(=O)N[C@@H](Cc2ccccc2)C(=O)N[C@@H](Cc2cccc(C)c2)C(=O)N[C@@H](CC(=O)O)C1=O [Example 2212] ({CH2CO}-F[Phe(3-Me)]D[NHexGly]YLDR[NMeNle][Ahp(2)]P[Tle]NC[AEEA][βAsp][AEEA][Aun]-OH; thioether N-14) | 34.9 nM

The next compounds have a lower IC50 than those just listed; values first:

Row | IC50 | Structure (SMILES)
8 | 18.6 nM | CCCCCCN1CC(=O)N[C@@H](Cc2ccc(O)cc2)C(=O)N[C@@H](CCCC)C(=O)N[C@@H](CC(N)=O)C(=O)N[C@@H](CCCNC(=N)N)C(=O)N(C)[C@@H](CCCC)C(=O)N[C@@H](CCCCC)C(=O)N2CCOC[C@H]2C(=O)N[C@@H](C(C)(C)C)C(=O)N[C@@H](CO)C(=O)N[C@H](C(=O)N[C@@H](CC(=O)NCCOCCOCC(=O)NCCCCCCCCCCC(=O)O)C(=O)O)CSCC(=O)N[C@@H](Cc2ccccc2)C(=O)N[C@@H](Cc2c[nH]c3ccccc23)C(=O)N[C@@H](CC(=O)O)C1=O [Example 2192] ({CH2CO}-FWD[NHexGly]Y[Nle]NR[NMeNle][Ahp(2)][Morpholine(3S-CO)][Tle]SC[βAsp][AEEA][Aun]-OH; thioether N-14)
9 | 16.1 nM | CCCCCCN1CC(=O)N[C@@H](Cc2ccc(O)cc2)C(=O)N[C@@H](CCCC)C(=O)N[C@@H](CC(N)=O)C(=O)N[C@@H](CCCNC(=N)N)C(=O)N(C)[C@@H](CCCC)C(=O)N[C@@H](CCCCC)C(=O)N2CCOC[C@H]2C(=O)N[C@@H](C(C)C)C(=O)N[C@@H](CO)C(=O)N[C@H](C(=O)N[C@@H](CC(=O)NCCOCCOCC(=O)NCCCCCCCCCCC(=O)O)C(=O)O)CSCC(=O)N[C@@H](Cc2ccccc2)C(=O)N[C@@H](Cc2c[nH]c3ccccc23)C(=O)N[C@@H](CC(=O)O)C1=O [Example 2193] ({CH2CO}-FWD[NHexGly]Y[Nle]NR[NMeNle][Ahp(2)][Morpholine(3S-CO)]VSC[βAsp][AEEA][Aun]-OH; thioether N-14)
10 | 15.2 nM | CCCCCCN1CC(=O)N[C@@H](Cc2ccc(O)cc2)C(=O)N[C@@H](CCCC)C(=O)N[C@@H](CC(N)=O)C(=O)N[C@@H](CCCNC(=N)N)C(=O)N[C@@H](CC(C)C)C(=O)N[C@@H](CCCCC)C(=O)N2CCC[C@H]2C(=O)N[C@@H](C(C)C)C(=O)N[C@@H](CC(=O)O)C(=O)N[C@H](C(=O)NCCOCCOCC(=O)N[C@@H](CC(=O)NCCOCCOCC(=O)NCCCCCCCCCCC(=O)O)C(=O)O)CSCC(=O)N[C@@H](Cc2cccc(C)c2)C(=O)N[C@@H](Cc2c[nH]c3ccccc23)C(=O)N[C@@H](CC(=O)O)C1=O [Example 2198] ({CH2CO}-[Phe(3-Me)]WD[NHexGly]Y[Nle]NRL[Ahp(2)]PVDC[AEEA][βAsp][AEEA][Aun]-OH; thioether N-14)
11 | 18.3 nM | CCCCCCN1CC(=O)N[C@@H](Cc2ccc(O)cc2)C(=O)N[C@@H](CCCCC)C(=O)NCC(=O)N[C@@H](CCCNC(=N)N)C(=O)N[C@@H](CC(C)C)C(=O)N[C@@H](CCCCC)C(=O)N2CCC[C@H]2C(=O)N[C@@H](C(C)C)C(=O)N[C@@H](CO)C(=O)N[C@H](C(=O)NCCOCCOCC(=O)N[C@@H](CC(=O)NCCOCCOCC(=O)NCCCCCCCCCCC(=O)O)C(=O)O)CSCC(=O)N[C@@H](Cc2ccccc2)C(=O)N[C@@H](Cc2ccc(O)cc2)C(=O)N[C@@H](CC(=O)O)C1=O [Example 2199] ({CH2CO}-FYD[NHexGly]Y[Ahp(2)]GRL[Ahp(2)]PVSC[AEEA][βAsp][AEEA][Aun]-OH; thioether N-14)
12 | 16.5 nM | CCCCCCN1CC(=O)N[C@@H](Cc2ccc(O)cc2)C(=O)N[C@@H](CCCC)C(=O)N[C@@H](CC(N)=O)C(=O)N[C@@H](CCCNC(=N)N)C(=O)N(C)[C@@H](CCCC)C(=O)N[C@@H](CCCCC)C(=O)N2CCC[C@H]2C(=O)N[C@@H](C(C)C)C(=O)N[C@@H](CC(=O)O)C(=O)N[C@H](C(=O)NCCOCCOCC(=O)N[C@@H](CC(=O)NCCOCCOCC(=O)NCCCCCCCCCCC(=O)O)C(=O)O)CSCC(=O)N[C@@H](Cc2ccc3ccccc3c2)C(=O)N[C@@H](Cc2c[nH]c3ccccc23)C(=O)N[C@@H](CC(=O)O)C1=O [Example 2200] ({CH2CO}-[2Nal]WD[NHexGly]Y[Nle]NR[NMeNle][Ahp(2)]PVDC[AEEA][βAsp][AEEA][Aun]-OH; thioether N-14)
13 | 14.9 nM | CCCCCCN1CC(=O)N[C@@H](Cc2ccc(O)cc2)C(=O)N[C@@H](CCCC)C(=O)N[C@@H](CC(N)=O)C(=O)N[C@@H](CCCNC(=N)N)C(=O)N(C)[C@@H](CCCC)C(=O)N[C@@H](CCCCC)C(=O)N2CCC[C@H]2C(=O)N[C@@H](C(C)C)C(=O)N[C@@H](CC(=O)O)C(=O)N[C@H](C(=O)NCCOCCOCC(=O)N[C@@H](CC(=O)NCCOCCOCC(=O)NCCCCCCCCCCC(=O)O)C(=O)O)CSCC(=O)N[C@@H](Cc2ccccc2)C(=O)N[C@@H](Cc2c[nH]c3ccccc23)C(=O)N[C@@H](CC(=O)O)C1=O [Example 2204] ({CH2CO}-FWD[NHexGly]Y[Nle]NR[NMeNle][Ahp(2)]PVDC[AEEA][βAsp][AEEA][Aun]-OH; thioether N-14)
